The values below come from patent US20230040594A1, “MILK-DERIVED POLYPEPTIDE DERIVATIVE, COMPOSITION AND METHOD FOR PREVENTING AND TREATING OBESITY” (Nanjing Maternity and Child Health Care Hospital, priority 2021, published 2023).

Assay [1] concerns UCP1 protein. The assay can be described thus: UCP1 protein immunohistochemistry and Western blot in adipose tissues of mice with high-fat diet (Embodiment 5). Type of assay: in vivo. On the procedure:
(§1) C57BL/6J male mice at 6-8 weeks old were used as research subjects, and an experiment was carried out after adaptation to a SPF animal room for one week. The mice were fed with high-fat diet (with 60% of fat content) for 10 weeks to induce obesity phenotype in mice. At the same time, different drug concentrations (5 mg/kg and 10 mg/kg) were provided, and the milk-derived polypeptide derivatives corresponding to SEQ ID NO.5 were administered by intraperitoneal injection twice a week, with dissolved normal saline (Vehicle) as a control. After 10 weeks of intervention, the mice were killed, and brown fat (BAT) at scapula and inguinal subcutaneous white adipose tissues (iWAT) were taken to be fixed with a adipose tissue fixing solution (Solarbio, G2185) for 24 hours. H&E staining and a UCP1 protein immunohistochemistry study were carried out after dehydration, paraffin embedding and sectioning. The H&E staining is performed using a kit (ab245800) from Abcam, and specific steps can be found in kit instructions. Tissue sections were subjected to the immunohistochemistry study after dewaxing and antigen repairing. Specifically, the sections were incubated overnight with UCP1 antibody (1:200, Proteintech) at 4 degrees. The antibody was diluted with PBS containing 1% of BSA, and a color reaction was carried out next day with a DAB kit from Abcam. Specific operations can be referred to kit experimental steps. At the same time, total protein was extracted by a RIPA lysate, and expression of the UCP1 protein in the adipose tissues was detected by a Western blot method after quantifying, SDS-PAGE electrophoresis and transmembrane.
A general note: In western blotting, separated proteins are transferred to a membrane and probed.

The test system of assay [2] is C57BL/6J male mice fed with high-fat diet. The assay can be described thus: Insulin sensitivity (ITT) in mice with high-fat diet (Embodiment 3). Type of assay: in vivo. As for the experimental part: (§2) C57BL/6J male mice at 6-8 weeks old were used as research subjects, and an experiment was carried out after adaptation to a SPF animal room for one week. The mice were fed with high-fat diet (with 60% of fat content) for 10 weeks to induce obesity phenotype in mice. At the same time, different drug concentrations (5 mg/kg and 10 mg/kg) of the milk-derived polypeptide derivatives corresponding to SEQ ID NO.5 were provided, and were administered by intraperitoneal injection twice a week, with dissolved normal saline (Vehicle) as a control.
(§3) Insulin Sensitivity: The mice are fasted overnight for 12 hours, and at a next day, insulin was injected by intraperitoneal injection at a standard of 0.75 U per kg of weight. Blood samples were taken from tail vein at 0 min, 15 min, 30 min, 60 min, 90 min and 120 min after the injection, and changes of the blood glucose in the mice were measured by a blood glucose meter to evaluate the insulin sensitivity of the mice. Glucose tolerance test: after fasting for 6 hours, the mice were injected with glucose by intraperitoneal injection at a concentration of 1 g per kg of weight. Blood samples were taken from tail vein at 0 min, 15 min, 30 min, 60 min, 90 min and 120 min after the injection, and changes of the blood glucose in the mice were measured by a blood glucose meter to evaluate the glucose tolerance of the mice.

Assay [3] has the same test system. The assay can be described thus: Glucose tolerance test (GTT) in mice with high-fat diet (Embodiment 3). The conditions noted are these: FIG. 6. Type of assay: in vivo. On the procedure:
as §2, §3

Assay [4] concerns obese C57BL/6J male mice induced by high-fat diet for six months. The assay can be described thus: Body weight, blood glucose and adipose tissue volume of obese model mice (Embodiment 6). The format is in vivo. On the procedure:
C57BL/6J male mice at 6-8 weeks old were used as research subjects, and an experiment was carried out after adaptation to a SPF animal room for one week. The mice were fed with high-fat diet (with 60% of fat content) for six months to induce obesity phenotype in mice. After six months, the milk-derived polypeptide derivative shown by SEQ ID NO.5 (10 mg/kg) was administered by intraperitoneal injection once a day and continuously for 8 weeks. The mice were weighed every week for their weight changes, and at the same time, blood glucose changes of the mice were detected by a blood glucose meter. After intervention, the mice were killed, and then brown fat (BAT) at scapular, inguinal white adipose tissue (iWAT) and epididymal white adipose tissue (eWAT) were photographed. As mentioned above, H&E staining was also performed to observe morphological changes of lipid droplets, and expression of the UCP1 protein in adipose tissues was detected by immunohistochemistry and the Western blot methods.

Assay [5] relates to C57BL/6J male mice fed with high-fat diet. The assay can be described thus: Fasting blood glucose, blood lipid and insulin levels of mice with high-fat diet (Embodiment 4). Type of assay: in vivo. The conditions noted are these: continuous intervention for 10 weeks; 5 and 10 mg/kg i.p. twice a week; FIG. 8. On the procedure:
as §2, with “resolvent” for “dissolved normal”, “control. The changes of the blood glucose in the mice were detected by a Roche blood glucose meter, and changes of blood lipid and insulin level in the mice were detected by Applygen and Millipore commercial kits respectively.” for “control.”

For assay [6] the test system is unchanged. The assay can be described thus: Weight increasing of mice with high-fat diet (Embodiment 2). The format is in vivo. The conditions noted are these: 5 and 10 mg/kg i.p. twice a week. On the procedure: as §2, with “mg/kg) were provided, and” for “mg/kg) of”, “NO.5” for “NO.5 were provided, and”, “control. The mice are weighed to obtain body weight and their food intake calculated every week. After the mice were killed, brown fat (BAT) at scapular, inguinal white adipose tissue (iWAT) and epididymal white adipose tissue (eWAT) were photographed, weighed to obtain wet weight and lean mass of the mice was calculated.” for “control.”

Assay [7] has as its system brown fat (BAT) and inguinal subcutaneous white adipose tissues (iWAT). The assay can be described thus: H&E staining of adipose tissues of mice with high-fat diet (Embodiment 5). Conditions: 10 weeks; 5 and 10 mg/kg i.p. twice a week; FIG. 9. The format is in vivo. As for the experimental part:
as §1, with “Specifically, the sections were incubated overnight with UCP1 antibody (1:200, Proteintech) at 4 degrees. The antibody was diluted with PBS containing 1% of BSA, and a color reaction was carried out next day with a DAB kit from Abcam. Specific operations can be referred to kit experimental steps.” left out

Assay [8] has as its system UCP1 protein. The assay can be described thus: UCP1 protein immunohistochemistry and Western blot in adipose tissues of obese model mice (Embodiment 6). The format is in vivo. The conditions noted are these: 10 mg/kg i.p. once a day for 8 weeks; FIG. 13 and FIG. 14. As for the experimental part: as §2, with “mg/kg) were provided, and” for “mg/kg) of”, “NO.5” for “NO.5 were provided, and”, “control. […] At the same time, total protein was extracted by a RIPA lysate, and expression of the UCP1 protein in the adipose tissues was detected by a Western blot method after quantifying, SDS-PAGE electrophoresis and transmembrane.” for “control.”
(§4) C57BL/6J male mice at 6-8 weeks old were used as research subjects, and an experiment was carried out after adaptation to a SPF animal room for one week. […] The mice were weighed every week for their weight changes, and at the same time, blood glucose changes of the mice were detected by a blood glucose meter. […] As mentioned above, H&E staining was also performed to observe morphological changes of lipid droplets, and expression of the UCP1 protein in adipose tissues was detected by immunohistochemistry and the Western blot methods.

The subject of assay [9] is adipose tissues of obese model mice. The assay can be described thus: H&E staining of adipose tissues of obese model mice (Embodiment 6). Type of assay: in vivo. The conditions noted are these: 10 mg/kg i.p. once a day for 8 weeks; FIG. 13. As for the experimental part: as §2, with “mg/kg) were provided, and” for “mg/kg) of”, “NO.5” for “NO.5 were provided, and”, “control. […] At the same time, total protein was extracted by a RIPA lysate, and expression of the UCP1 protein in the adipose tissues was detected by a Western blot method after quantifying, SDS-PAGE electrophoresis and transmembrane.” for “control.”
as §4

For assay [10] the following is noted: previous studies; can scavenge free radicals produced in vivo; cited from earlier work.
The mark [11] stands for this setting: 10 mg/kg i.p. once a day for 8 weeks after six months high-fat diet, FIG. 11.

With “GRKKRRQRRRPPQQVKEAMAPK [SEQ ID NO.5, theone tested in Embodiments 2-6]”, the “effect on UCP1 protein content at low drug concentration (Western blot)” value in assay [1] (5 mg/Kg, FIG. 10) was “good effect”. For the same sequence, the “UCP1 immunohistochemistry brown areas in brown and white adipose tissues” value in [1] (10 weeks, 5 and 10 mg/kg i.p. twice a week, FIG. 9) is reported as “significantly increased”. In assay [1] (10 weeks, 5 and 10 mg/kg, certain dose-dependent relationship, FIG. 10), the “contents of the UCP1 protein in brown and white adipose tissues (Western blot)” value is “significantly increased”. In [2] (5 mg/kg, FIG. 7), the “insulin sensitivity (ITT)” value is “certain statistical significance”. Further, the “blood glucose levels within 2 hours after insulin injection vs control” value in [2] (continuous intervention for 10 weeks, 5 and 10 mg/kg, insulin 0.75 U per kg i.p.) is “lower than those of the control group”. Further, the “area under the curve (GTT)” value in assay [3] (10 mg/kg for 10 weeks) is on record as “significant statistical significance”. In assay [3] (continuous intervention for 10 weeks, 5 and 10 mg/kg, glucose 1 g per kg i.p.), the “blood glucose levels within 2 hours after glucose injection vs control” value is on record as “lower than those of the control group”. In [4] (setting [11]), the “body weight of the obese mice” value was “significantly reduced” and the fasting blood glucose result is given as “decreased”. For the same sequence, the “tissue volumes of white fat (subcutaneous and abdominal) and brown fat (scapular areas)” value in [4] (10 mg/kg i.p. once a day for 8 weeks, after dissection, FIG. 12) was “significantly reduced”. Also, in assay [5], the “blood lipid (triglyceride) level” value was “significantly reduced”, the “fasting blood glucose level” value is recorded as “significantly reduced” and the insulin level entry was “significantly reduced”. The “fat content (wet weight test of the adipose tissues)” value in assay [6] (10 weeks, FIG. 4) was “decreased significantly”. Moreover, the “lean mass of the mice” value in assay [6] (10 weeks, FIG. 5) is on record as “no significant change”. In addition, in [6] (after dissection, 10 weeks, FIG. 3), the “volumes of subcutaneous and abdominal white adipose tissues” value was “decreased significantly”. In addition, the “weight of the mice vs control group (Vehicle)” value in [6] (by 10th week) is recorded as “significantly lower”. In [7], the “morphology sizes of lipid droplets in brown fat and white adipose tissues (H&E staining)” value is recorded as “significantly reduced”. For the same sequence, the “expression of UCP1 in two kinds of adipose tissues (immunohistochemistry and Western blot)” value in assay [8] is on record as “increased”. In addition, the “sizes of the lipid droplets in the two tissues (H&E staining)” value in [9] is reported as “decreased significantly”.
As for “VKEAMAPK [Val-Lys-Glu-Ala-Met-Ala-Pro-Lys, isolated linear milk-derived polypeptide from β-casein 98-105 amino acids]”, in assay [10], the antioxidant activity entry was “antioxidant activity”.
